According to patent US20240148821A1, “PHARMACEUTICAL USE OF CYCLIC PEPTIDE COMPOUND” (CHUGAI SEIYAKU KABUSHIKI KAISHA, priority 2021, published 2024):
Numbered stars: 1 amine (or outer) side, 2 acyl side, 3 side chain; on linkers, the order of the positions; unused ones are H or OH. Bridge positions count the residues as written; N and C are the ends. Square brackets hold non-standard residues; d marks the D form. Peptide text beside a SMILES is read from it. * marks the point of attachment. hPhe(3-Cl-4-CF3) = N[C@@H](CCc1ccc(C(F)(F)F)c(Cl)c1)C(=O)O; hPhe(3-F,4-CF3) = N[C@@H](CCc1ccc(C(F)(F)F)c(F)c1)C(=O)O; NMePhe(4-CF3) = CN[C@@H](Cc1ccc(C(F)(F)F)cc1)C(=O)O; NMePhe(4-Cl) = CN[C@@H](Cc1ccc(Cl)cc1)C(=O)O; X51 = CN([C@@](C)(Cc1ccccc1)C(=O)[*:2])[*:1]; NMePhe(4-Me) = CN[C@@H](Cc1ccc(C)cc1)C(=O)O; NMedβ3hAla = C[C@H](CC(=O)[*:2])N(C)[*:1]; Phe(3-Br) = N[C@@H](Cc1cccc(Br)c1)C(=O)O; NMeGly(cPent) = CN[C@H](C(=O)O)C1CCCC1; Phe(3-I) = N[C@@H](Cc1cccc(I)c1)C(=O)O; NMe3Pal = CN[C@@H](Cc1cccnc1)C(=O)O; NMeY = CN[C@@H](Cc1ccc(O)cc1)C(=O)O; NMeCha = CN[C@@H](CC1CCCCC1)C(=O)O; NMeCba = CN[C@@H](CC1CCC1)C(=O)O; NMeI = CC[C@H](C)[C@H](NC)C(=O)O; NMeD = CN[C@@H](CC(=O)O)C(=O)O; NMeL = CN[C@@H](CC(C)C)C(=O)O; NMeV = CN[C@H](C(=O)O)C(C)C; d(β3hA) = C[C@@H](N)CC(=O)O; NMeA = CN[C@@H](C)C(=O)O; NMeAib = CNC(C)(C)C(=O)O; Nle = CCCC[C@H](N)C(=O)O; Piperidide = C1CCN(*)CC1; dNMeA = CN[C@H](C)C(=O)O; Ac5c = NC1(C(=O)O)CCCC1; Aze = O=C(O)[C@@H]1CCN1; Sar = CNCC(=O)O

Each molecule was assayed on Human pancreatic cancer cell line AsPC-1 (G12D mutation Kras) (assay: AsPC-1 cell growth inhibition (AsPC-1 CGI)). Conditions: read-out: AsPC-1 cell growth inhibition, 50% growth inhibitory concentration (IC50 value); 96 hours, CellTiter-Glo, values classified in ranges.
Format: cell-based
Method: Test compounds were serially dilated with dimethyl sulfoxide, and 200 nL was then dispensed to a U-bottom 96-well plate using Labcyte Echo. […] The cell suspension was dispensed to a. plate containing a test compound at 100 μL per well and incubated at 37° C. in a 5% carbon dioxide gas incubator. 96 hours later, 80 μL of CellTiter-Glo (Promega) was added to each well and fluorescence was measured.

| SMILES | IC50 |
| --- | --- |
| CC[C@H](C)[C@@H]1NC(=O)[C@H](C)N(C)C(=O)C[C@@H](C)NC(=O)[C@H](C2CCCC2)N(C)C(=O)C2(CCCC2)NC(=O)[C@@H]2CCCN2C(=O)[C@H](CCc2ccc(C(F)(F)F)c(Cl)c2)NC(=O)[C@@H](C)N(C)C(=O)[C@H](Cc2ccc(C(F)(F)F)cc2)N(C)C(=O)[C@@H]2CCN2C(=O)CN(C)C1=O [Compound 1507] (cyclo([Ac5c][NMeGly(cPent)][d(β3hA)][NMeA]I[Sar][Aze][NMePhe(4-CF3)][dNMeA][hPhe(3-Cl-4-CF3)]P)) | > 500 nM |
| CCCC[C@@H]1NC(=O)[C@H](Cc2cccc(Br)c2)NC(=O)CN(C)C(=O)[C@H](Cc2ccc(Cl)cc2)N(C)C(=O)CN(C)C(=O)CN(C)C(=O)[C@H]([C@@H](C)CC)NC(=O)[C@H](CC(C)C)N(C)C(=O)C[C@@H](C(=O)N2CCCCC2)N(C)C(=O)[C@H](CC(C)C)NC(=O)C(C)(C)N(C)C1=O [Compound 1404] ([NMeL]I[Sar][Sar][NMePhe(4-Cl)][Sar][Phe(3-Br)][Nle][NMeAib]L[NMeD]-Piperidide; lactam N-11) | > 500 nM |
| CCCC[C@@H]1NC(=O)[C@H](Cc2cccc(I)c2)NC(=O)CN(C)C(=O)[C@H](Cc2ccc(OC)cc2)N(C)C(=O)[C@@H]2CCN2C(=O)CN(C)C(=O)[C@H]([C@@H](C)CC)NC(=O)[C@H](CC(C)C)N(C)C(=O)C[C@@H](C(=O)N2CCCCC2)N(C)C(=O)[C@H](CC(C)C)NC(=O)[C@](C)(Cc2ccccc2)N(C)C1=O [Compound 1058] ([NMeL]I[Sar][Aze][NMeY](Me)[Sar][Phe(3-I)][Nle][X51]L[NMeD]-Piperidide; lactam N-11) | > 500 nM |
| CC[C@H](C)[C@@H]1NC(=O)[C@H](CC(C)C)N(C)C(=O)C[C@@H](C)N(C)C(=O)[C@H](CC(C)C)NC(=O)C(C)(C)N(C)C(=O)[C@H](CC(C)C)NC(=O)[C@H](CCc2ccc(C(F)(F)F)c(F)c2)NC(=O)CN(C)C(=O)[C@H](CC2CCCCC2)N(C)C(=O)CN(C)C(=O)[C@@H]2CCN2C1=O [Compound 905] (cyclo([Aze][Sar][NMeCha][Sar][hPhe(3-F,4-CF3)]L[NMeAib]L[NMedβ3hAla][NMeL]I)) | > 500 nM |
| CC[C@H](C)[C@@H]1NC(=O)[C@H](C)N(C)C(=O)C[C@@H](C)NC(=O)[C@H](C2CCCC2)N(C)C(=O)C2(CCCC2)NC(=O)[C@@H]2CCCN2C(=O)[C@H](CCc2ccc(C(F)(F)F)c(Cl)c2)NC(=O)CN(C)C(=O)[C@H](Cc2ccc(Cl)cc2)N(C)C(=O)[C@@H]2CCCN2C(=O)CN(C)C1=O [Compound 549] (cyclo([Ac5c][NMeGly(cPent)][d(β3hA)][NMeA]I[Sar]P[NMePhe(4-Cl)][Sar][hPhe(3-Cl-4-CF3)]P)) | > 500 nM |
| CC[C@H](C)[C@@H]1NC(=O)[C@H](CC(C)C)N(C)C(=O)C[C@@H](C(=O)N(C)C)N(C)C(=O)[C@H]([C@@H](C)CC)N(C)C(=O)[C@H](C)NC(=O)[C@H](Cc2cccnc2)N(C)C(=O)[C@H](CCc2ccc(C(F)(F)F)c(Cl)c2)NC(=O)CN(C)C(=O)[C@H](Cc2ccc(C)cc2)N(C)C(=O)[C@@H]2CCN2C(=O)[C@H](C)N(C)C1=O [Compound 557] ([NMeL]I[NMeA][Aze][NMePhe(4-Me)][Sar][hPhe(3-Cl-4-CF3)][NMe3Pal]A[NMeI][NMeD]-NMe2; lactam N-11) | > 500 nM |
| CC[C@H](C)[C@@H]1NC(=O)[C@H](CC(C)C)N(C)C(=O)C[C@@H](C(=O)N(C)C)N(C)C(=O)[C@H]([C@@H](C)CC)N(C)C(=O)C2(CCCC2)NC(=O)[C@H](C)N(C)C(=O)[C@H](CCc2ccc(C(F)(F)F)c(Cl)c2)NC(=O)CN(C)C(=O)[C@H](Cc2ccc(C)cc2)N(C)C(=O)[C@@H]2CCN2C(=O)[C@H](C)N(C)C1=O [Compound 378] ([NMeL]I[NMeA][Aze][NMePhe(4-Me)][Sar][hPhe(3-Cl-4-CF3)][NMeA][Ac5c][NMeI][NMeD]-NMe2; lactam N-11) | ≤ 20 nM |
| CC[C@H](C)[C@@H]1NC(=O)[C@H](CC(C)C)N(C)C(=O)C[C@@H](C(=O)N2CCCCC2)N(C)C(=O)[C@H](C(C)C)N(C)C(=O)C2(CCCC2)NC(=O)[C@H](C)N(C)C(=O)[C@H](CCc2ccc(C(F)(F)F)c(Cl)c2)NC(=O)CN(C)C(=O)[C@H](CC2CCCCC2)N(C)C(=O)[C@@H]2CCN2C(=O)[C@H](C)N(C)C1=O [Compound 1243] ([NMeL]I[NMeA][Aze][NMeCha][Sar][hPhe(3-Cl-4-CF3)][NMeA][Ac5c][NMeV][NMeD]-Piperidide; lactam N-11) | > 500 nM |
| CC[C@H](C)[C@@H]1NC(=O)[C@H](CC(C)C)N(C)C(=O)C[C@@H](C)N(C)C(=O)[C@H](CC2CCC2)N(C)C(=O)C2(CCCC2)NC(=O)[C@@H]2CCCN2C(=O)[C@H](CCc2ccc(C(F)(F)F)c(Cl)c2)NC(=O)CN(C)C(=O)[C@H](CC2CCCCC2)N(C)C(=O)CN(C)C(=O)CN(C)C1=O [Compound 723] (cyclo([Ac5c][NMeCba][NMedβ3hAla][NMeL]I[Sar][Sar][NMeCha][Sar][hPhe(3-Cl-4-CF3)]P)) | > 500 nM |
